The term IC50 denotes the concentration that inhibits the measured activity by half. Read a high IC50 as weaker potency. Broadly, the inhibition is the share of the control response that was lost under treatment.

The values below come from patent US10689362B2, “Quinoxaline compounds as type III receptor tyrosine kinase inhibitors” (Development Center for Biotechnology, priority 2016, dated 2020).

For test [1], the system named is MV4-11 human acute myeloid leukemia cell with FLT3-ITD mutation. Put plainly: MV4-11 cell proliferation assay (CellTiter-96). In kind it is cell-based. As to conditions: Cytotoxicity, MV4-11 cells, 72 hours. Put shortly: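 Growth inhibition read as absorbance at 490 nm after 4 hours with CellTiter96 AQueous One reagent. Before that, FLT3-ITD-dependent MV4-11 cells (6500 cells/well, overnight at 37° C., 5% CO2) received a rising compound concentration series for 72 hours.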

Test [2] has as its target PDGFRβ kinase (Homo sapiens (Human), UniProt P09619). Put plainly: PDGFRβ kinase assay (radiometric). In kind it is biochemical. Put shortly:
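Radiometric assay: recombinant PDGFRβ with poly(Glu4:Tyr1) in MOPS pH 7.0 buffer containing Mg2+/Mn2+, 10 μM ATP plus [33P]-ATP, and compound at 4% DMSO final. Incubated 60 min at 30° C, stopped with phosphoric acid, filter-captured and scintillation-counted. IC50 from curve fitting.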

Test [3] has as its target CSF-1R kinase (Homo sapiens (Human), UniProt P07333). The experiment in a line: CSF-1R kinase assay (AlphaScreen). In kind it is biochemical. As to conditions: class symbol. On the procedure:
Inhibition of CSF-1R kinase activity by a test compound disclosed herein was estimated by AlphaScreen (PerkinElmer). […] Reactions were incubated at 30° C. for 45 min and stopped by adding 5 μL of 50 mM EDTA. Analysis of resulting product using an AlphaScreen kit, and counted with Enspire Alpha (PerkinElmer). […] The IC50 values of quinoxaline compounds of this invention against CSF-1R kinase were determined using the GraphPad Prism 5 software.
On the technique in general: Bead proximity is the source of the signal in Alpha formats.

Test [4] addresses c-KIT kinase (Homo sapiens (Human), UniProt P10721). Put plainly: c-KIT kinase assay (radiometric). In kind it is biochemical. Put shortly:
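Recombinant c-Kit (20 ng) with 2 μg Poly-(Glu4:Tyr1) in MOPS pH 7.0 buffer with MgCl2/MnCl2, 10 μM ATP plus [^33P]-ATP, 4% DMSO final, 60 min at 30° C. Stopped with phosphoric acid, filter-captured and scintillation counted; IC50 from curve fit.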

The subject of test [5] is Kasumi-1 human acute myeloid leukemia cell with c-KIT N822K activating mutation. The experiment in a line: Kasumi-1 cell proliferation assay (CellTiter-96). As to conditions: Cytotoxicity, Kasumi-1 cells, 72 hours. In kind it is cell-based. Put shortly:
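After 72 h of treatment with a compound dilution series, growth of c-KIT N822K-driven Kasumi-1 cells (64000 per well, plated the day before) was read as 490 nm absorbance. This followed a 4 h incubation with CellTiter96 AQueous One reagent.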

Test [6] has as its system THP-1 human acute monocytic leukemia cell harboring NRAS G12D mutation. Put plainly: THP-1 cell proliferation assay (counter screen, CellTiter-96). In kind it is cell-based. Particulars: Cytotoxicity, THP-1 cells (counter screen), 72 hours. Put shortly:
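Growth inhibition read as 490 nm absorbance after 4 h with CellTiter96 AQueous One reagent, following 72 h compound exposure at rising concentrations. THP-1 (NRAS G12D) cells plated at 5000 per well and left overnight at 37 °C, 5% CO2 before dosing.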

For test [7], the system named is osteoclast precursors (osteoclast differentiation). Put plainly: Osteoclast tartrate-resistant acid phosphatase assay. As to conditions: 168 h, at 1 μM treatment, 7 days, RANKL and M-CSF, read-out: inhibition activity against osteoclast differentiation. In kind it is cell-based. Put shortly:
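Differentiation inhibition was scored at 1 μM compound in duplicate, using supernatant TRAP activity read at 550 nm with an acid phosphatase kit.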

The test system of test [8] is CSF-1-dependent M-NFS-60 mouse myeloid leukemia cell. Put plainly: M-NFS-60 cell proliferation assay (CellTiter-96). In kind it is cell-based. As to conditions: Cytotoxicity, M-NFS-60 cells, 72 hours. Put shortly:
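Growth inhibition was measured as absorbance at 490 nm after 4 h with CellTiter 96 AQueous One reagent. Beforehand, M-NFS-60 cells (2000/well, CSF-1-dependent) were treated with a compound dilution series for 72 h following overnight plating at 37 °C, 5% CO2.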

In test [9] the target is FLT3 kinase (Homo sapiens (Human), UniProt P36888). Put plainly: FLT3 kinase assay (radiometric). In kind it is biochemical. As to conditions: bound. Put shortly: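 Recombinant FLT3 (5 ng) phosphorylating poly(Glu4:Tyr1) (2 μg) with 10 μM ATP plus [^33P]-ATP in MOPS pH 7.0 buffer, 4% DMSO final, 60 min at 30° C. Reaction stopped with phosphoric acid, filter-captured and scintillation-counted; IC50 derived from dose-response.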
Sequence of FLT3 kinase (P36888 27-993): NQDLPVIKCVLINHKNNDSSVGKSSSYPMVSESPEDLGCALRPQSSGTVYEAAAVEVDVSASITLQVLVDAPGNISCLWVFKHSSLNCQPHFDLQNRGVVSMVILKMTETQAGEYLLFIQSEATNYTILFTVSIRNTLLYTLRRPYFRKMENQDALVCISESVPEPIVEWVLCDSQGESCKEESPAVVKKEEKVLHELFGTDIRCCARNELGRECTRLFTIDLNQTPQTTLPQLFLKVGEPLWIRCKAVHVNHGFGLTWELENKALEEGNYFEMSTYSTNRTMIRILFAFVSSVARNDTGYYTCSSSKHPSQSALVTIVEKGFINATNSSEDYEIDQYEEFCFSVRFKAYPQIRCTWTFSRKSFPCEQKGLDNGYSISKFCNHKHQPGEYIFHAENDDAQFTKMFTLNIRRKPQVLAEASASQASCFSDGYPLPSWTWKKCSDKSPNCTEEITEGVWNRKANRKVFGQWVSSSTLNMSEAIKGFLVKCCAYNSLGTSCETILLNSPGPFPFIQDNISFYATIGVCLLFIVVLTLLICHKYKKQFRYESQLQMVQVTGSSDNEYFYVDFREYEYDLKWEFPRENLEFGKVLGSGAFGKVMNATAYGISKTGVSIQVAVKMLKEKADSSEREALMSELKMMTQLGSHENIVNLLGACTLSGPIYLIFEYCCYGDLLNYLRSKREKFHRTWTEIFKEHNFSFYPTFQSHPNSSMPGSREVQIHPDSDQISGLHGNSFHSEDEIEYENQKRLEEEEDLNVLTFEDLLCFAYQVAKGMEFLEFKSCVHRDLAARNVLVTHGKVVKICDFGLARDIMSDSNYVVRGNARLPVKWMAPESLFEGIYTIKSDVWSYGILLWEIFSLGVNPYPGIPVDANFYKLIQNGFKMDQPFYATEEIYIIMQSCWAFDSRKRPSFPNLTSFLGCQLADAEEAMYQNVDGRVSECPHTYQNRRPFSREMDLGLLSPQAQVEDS

Sequence of PDGFRβ kinase (P09619 33-1106): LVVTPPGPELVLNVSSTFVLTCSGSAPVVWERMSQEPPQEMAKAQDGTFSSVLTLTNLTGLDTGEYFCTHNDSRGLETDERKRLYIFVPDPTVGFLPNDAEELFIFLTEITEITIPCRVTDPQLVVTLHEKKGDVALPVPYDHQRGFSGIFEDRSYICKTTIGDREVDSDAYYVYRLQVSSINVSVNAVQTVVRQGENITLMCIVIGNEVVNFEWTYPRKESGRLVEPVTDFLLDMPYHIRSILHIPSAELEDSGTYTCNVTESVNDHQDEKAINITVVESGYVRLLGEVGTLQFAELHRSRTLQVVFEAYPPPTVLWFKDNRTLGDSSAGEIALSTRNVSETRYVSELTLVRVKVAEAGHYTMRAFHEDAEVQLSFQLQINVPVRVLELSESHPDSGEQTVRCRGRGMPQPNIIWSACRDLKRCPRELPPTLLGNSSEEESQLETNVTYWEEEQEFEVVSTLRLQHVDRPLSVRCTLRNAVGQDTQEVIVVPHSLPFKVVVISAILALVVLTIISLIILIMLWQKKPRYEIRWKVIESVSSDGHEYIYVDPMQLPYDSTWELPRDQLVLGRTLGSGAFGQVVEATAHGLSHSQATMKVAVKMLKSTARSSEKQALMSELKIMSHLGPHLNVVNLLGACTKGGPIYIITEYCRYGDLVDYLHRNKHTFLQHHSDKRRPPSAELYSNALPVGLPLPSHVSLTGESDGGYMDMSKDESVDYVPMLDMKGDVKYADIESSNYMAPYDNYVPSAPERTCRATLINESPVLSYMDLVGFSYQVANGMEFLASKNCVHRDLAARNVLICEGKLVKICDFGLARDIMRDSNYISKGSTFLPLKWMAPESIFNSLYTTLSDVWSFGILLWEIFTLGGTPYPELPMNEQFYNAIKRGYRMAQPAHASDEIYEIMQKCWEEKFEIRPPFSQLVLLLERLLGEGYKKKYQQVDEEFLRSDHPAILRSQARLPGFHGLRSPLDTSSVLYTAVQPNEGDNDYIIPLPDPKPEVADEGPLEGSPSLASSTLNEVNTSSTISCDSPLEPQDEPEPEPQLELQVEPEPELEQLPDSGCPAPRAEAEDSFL
Sequence of c-KIT kinase (P10721 26-976): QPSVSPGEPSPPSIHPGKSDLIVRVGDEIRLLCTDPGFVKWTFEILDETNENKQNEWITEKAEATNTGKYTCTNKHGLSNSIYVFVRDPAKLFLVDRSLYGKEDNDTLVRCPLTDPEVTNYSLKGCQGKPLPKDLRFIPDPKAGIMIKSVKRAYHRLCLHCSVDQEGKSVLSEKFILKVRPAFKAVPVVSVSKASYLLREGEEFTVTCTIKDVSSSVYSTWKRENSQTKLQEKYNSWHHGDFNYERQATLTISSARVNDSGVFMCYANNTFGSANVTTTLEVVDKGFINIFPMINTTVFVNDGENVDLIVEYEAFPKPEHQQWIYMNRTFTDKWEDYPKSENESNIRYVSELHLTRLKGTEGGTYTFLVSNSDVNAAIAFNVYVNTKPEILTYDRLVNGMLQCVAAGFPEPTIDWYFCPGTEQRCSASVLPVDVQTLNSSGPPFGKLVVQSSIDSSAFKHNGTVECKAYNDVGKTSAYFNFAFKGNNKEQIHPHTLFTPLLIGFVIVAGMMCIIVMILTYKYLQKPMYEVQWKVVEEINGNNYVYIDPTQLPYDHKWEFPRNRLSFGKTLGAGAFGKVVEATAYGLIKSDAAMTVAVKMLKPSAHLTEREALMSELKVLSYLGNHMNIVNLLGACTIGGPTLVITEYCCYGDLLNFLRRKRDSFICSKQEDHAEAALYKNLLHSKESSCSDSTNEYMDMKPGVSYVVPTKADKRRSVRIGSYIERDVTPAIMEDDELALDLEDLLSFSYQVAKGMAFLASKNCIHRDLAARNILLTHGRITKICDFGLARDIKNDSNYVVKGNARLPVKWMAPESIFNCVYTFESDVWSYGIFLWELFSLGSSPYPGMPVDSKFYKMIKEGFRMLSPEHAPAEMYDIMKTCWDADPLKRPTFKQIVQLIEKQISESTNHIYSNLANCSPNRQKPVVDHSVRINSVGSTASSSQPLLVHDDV
Sequence of CSF-1R kinase (P07333 20-972): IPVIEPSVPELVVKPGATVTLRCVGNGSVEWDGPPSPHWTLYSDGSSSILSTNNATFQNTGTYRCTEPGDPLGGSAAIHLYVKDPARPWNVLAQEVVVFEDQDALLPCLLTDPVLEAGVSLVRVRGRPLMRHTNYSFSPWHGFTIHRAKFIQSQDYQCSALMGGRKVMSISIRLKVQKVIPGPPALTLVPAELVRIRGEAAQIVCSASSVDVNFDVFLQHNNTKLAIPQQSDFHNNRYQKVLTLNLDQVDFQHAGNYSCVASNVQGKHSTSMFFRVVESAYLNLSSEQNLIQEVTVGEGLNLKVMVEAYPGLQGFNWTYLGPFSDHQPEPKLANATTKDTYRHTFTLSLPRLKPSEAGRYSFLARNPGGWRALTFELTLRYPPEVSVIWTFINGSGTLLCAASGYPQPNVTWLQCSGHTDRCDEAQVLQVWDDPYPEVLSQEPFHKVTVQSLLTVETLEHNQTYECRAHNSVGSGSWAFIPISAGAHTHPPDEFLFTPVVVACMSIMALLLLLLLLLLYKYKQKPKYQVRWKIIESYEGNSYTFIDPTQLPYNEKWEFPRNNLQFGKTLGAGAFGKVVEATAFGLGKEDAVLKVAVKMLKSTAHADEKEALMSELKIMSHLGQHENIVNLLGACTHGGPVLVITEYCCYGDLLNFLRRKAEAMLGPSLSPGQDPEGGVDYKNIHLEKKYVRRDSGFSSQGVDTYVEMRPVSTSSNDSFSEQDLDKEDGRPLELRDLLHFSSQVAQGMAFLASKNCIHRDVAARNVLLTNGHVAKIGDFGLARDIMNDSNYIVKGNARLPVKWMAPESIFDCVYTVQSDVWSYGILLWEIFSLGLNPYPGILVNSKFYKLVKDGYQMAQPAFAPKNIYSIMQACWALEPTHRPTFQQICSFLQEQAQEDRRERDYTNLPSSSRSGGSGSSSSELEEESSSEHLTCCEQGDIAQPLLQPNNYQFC

With `COCCN1CCN(c2cnc3ccc(Nc4ccc(OCc5ccc(OC)nc5)c(OC)c4)c(C#N)c3n2)CC1` [Example 97, 6-((3-methoxy-4-((6-methoxypyridin-3-yl)methoxy)phenyl)amino)-3-(4-(2-methoxyethyl)piperazin-1-yl)quinoxaline-5-carbonitrile], the concentration for half-maximal inhibition (IC50) in [1] was 1000 to 10000 nM; in [2] (bound), greater than 1000 nM; in test [3], less than 100 nM; in test [4] (class symbol), 100 to 300 nM; in test [5], 300 to 1000 nM; in test [6], greater than 10000 nM. Also, the values for the IC50 in test [8] and in [9] were less than 300 nM and greater than 1000 nM, respectively. In test [7], the inhibition at 1 µM is greater than 50%.
For `COc1cc(Nc2ccc3ncc(N4CCOCC4)nc3c2C#N)ccc1OCc1ccccc1` [Example 88, 6-((4-(benzyloxy)-3-methoxyphenyl)amino)-3-morpholinoquinoxaline-5-carbonitrile], the 50% inhibitory concentration (IC50) in [1] is 1000 to 10000 nM; in [2] (bound), greater than 1000 nM; in test [3], less than 100 nM; in test [4] (class symbol) it was less than 100 nM; in [5], 300 to 1000 nM; in test [6], greater than 10000 nM. The IC50 is less than 300 nM in [8] and greater than 1000 nM in test [9]. For the same compound, the inhibition at 1 µM in test [7] was greater than 50%.
`COc1ccc(COc2ccc(Nc3ccc4ncc(N5CCC(N6CCOCC6)CC5)nc4c3C#N)cc2OC)cn1` [Example 102, 6-((3-methoxy-4-((6-methoxypyridin-3-yl)methoxy)phenyl)amino)-3-(4-morpholinopiperidin-1-yl)quinoxaline-5-carbonitrile]: the IC50 was greater than 10000 nM in test [1]; greater than 1000 nM in [2] (bound); less than 100 nM in [3]; 100 to 300 nM in test [4] (class symbol); less than 300 nM in [5]; greater than 10000 nM in [6]. Moreover, the results for the half-inhibitory concentration (IC50) in test [8] and in [9] were less than 300 nM and greater than 1000 nM, respectively. Also, in test [7], the inhibition at 1 µM was greater than 50%.
`COc1ccc(COc2ccc(Nc3ccc4ncc(N5CCOCC5)nc4c3C#N)cc2OC)cc1` [Example 16, 6-((3-methoxy-4-((4-methoxybenzyl)oxy)phenyl)amino)-3-morpholinoquinoxaline-5-carbonitrile]: the IC50 in test [1] is greater than 10000 nM; in test [2] (bound), greater than 1000 nM; in [3], less than 100 nM; in [4] (class symbol), less than 100 nM; in test [5], less than 300 nM; in test [6] it was greater than 10000 nM. The IC50 is less than 300 nM in test [8] and greater than 1000 nM in [9]. Besides, the inhibition at 1 µM in test [7] was greater than 50%.
Take `COc1ccc(COc2ccc(Nc3ccc4ncc(N5CCN(C)CC5)nc4c3C#N)cc2OC)cn1` [Example 95, 6-((3-methoxy-4-((6-methoxypyridin-3-yl)methoxy)phenyl)amino)-3-(4-methylpiperazin-1-yl)quinoxaline-5-carbonitrile]: the half-inhibitory concentration (IC50) was 1000 to 10000 nM in [1]; greater than 1000 nM in test [2] (bound); less than 100 nM in test [3]; 100 to 300 nM in [4] (class symbol); 300 to 1000 nM in test [5]; 1000 to 10000 nM in test [6]. The IC50 is less than 300 nM in test [8] and greater than 1000 nM in test [9]. Besides, the inhibition at 1 µM in test [7] was greater than 50%.
Turning to `COc1ccc(COc2ccc(Nc3ccc4ncc(N5CCOCC5)nc4c3)cc2OC)cc1` [Example 24, N-(3-methoxy-4-((4-methoxybenzyl)oxy)phenyl)-3-morpholinoquinoxalin-6-amine], the IC50 was 1000 to 10000 nM in test [1]; greater than 1000 nM in [2] (bound); less than 100 nM in test [3]; less than 100 nM in test [4] (class symbol); less than 300 nM in test [5]; greater than 10000 nM in test [6]. Moreover, the half-inhibitory concentration (IC50) in test [8] was less than 300 nM; in test [9] it was greater than 1000 nM. Also, the inhibition at 1 µM in test [7] is greater than 50%.
`COc1ccc(COc2ccc(Nc3ccc4ncc(N5CCN(C(C)=O)CC5)nc4c3C#N)cc2OC)cc1` [Example 72, 3-(4-acetylpiperazin-1-yl)-6-((3-methoxy-4-((4-methoxybenzyl)oxy)phenyl)amino)quinoxaline-5-carbonitrile]: the IC50 in test [1] was greater than 10000 nM; in [2] (class symbol), 300 to 1000 nM; in test [3] it was less than 100 nM; in test [4] (class symbol) it was less than 100 nM; in test [5] it was less than 300 nM; in [6], greater than 10000 nM. Also, the IC50 in test [8] is less than 300 nM; in test [9] it was greater than 1000 nM. Besides, in test [7], the inhibition at 1 µM is greater than 50%.
With `COc1ccc(COc2ccc(Nc3ccc4ncc(C(C)C)nc4c3C#N)cc2OC)cc1` [Example 109, 3-isopropyl-6-((3-methoxy-4-((4-methoxybenzyl)oxy)phenyl)amino)quinoxaline-5-carbonitrile], the IC50 in test [1] was greater than 10000 nM; in [2] (bound), greater than 1000 nM; in test [3], less than 100 nM; in test [4] (bound), greater than 1000 nM; in test [5], 1000 to 10000 nM; in test [6] it was greater than 10000 nM. Further, the 50% inhibitory concentration (IC50) in [8] was 1000 to 10000 nM; in test [9], greater than 1000 nM. In test [7], the inhibition at 1 µM is greater than 50%.
On to `COc1cc(Nc2ccc3ncc(N4CCOCC4)nc3c2C#N)ccc1OCc1ccc(CN(C)C)nc1` [Example 115, 6-((4-((6-((dimethylamino)methyl)pyridin-3-yl)methoxy)-3-methoxyphenyl)amino)-3-morpholinoquinoxaline-5-carbonitrile], for which the concentration for half-maximal inhibition (IC50) in [1] is 1000 to 10000 nM; in [2] (bound), greater than 1000 nM; in test [3], less than 100 nM; in test [4] (class symbol), 300 to 1000 nM; in test [5], 1000 to 10000 nM; in test [6], greater than 10000 nM. Also, the IC50 in test [8] is less than 300 nM; in [9], greater than 1000 nM. For the same compound, the inhibition at 1 µM in [7] is greater than 50%.
Regarding `COc1ccc(COc2ccc(Nc3ccc4ncc(NCCN5CCOCC5)nc4c3C#N)cc2OC)cc1` [Example 76, 6-((3-methoxy-4-((4-methoxybenzyl)oxy)phenyl)amino)-3-((2-morpholinoethyl)amino)quinoxaline-5-carbonitrile], the concentration for half-maximal inhibition (IC50) is 1000 to 10000 nM in test [1]; greater than 1000 nM in test [2] (bound); less than 100 nM in test [3]; 300 to 1000 nM in test [4] (class symbol); 1000 to 10000 nM in [5]; greater than 10000 nM in test [6]. Besides, the half-maximal inhibitory concentration (IC50) in test [8] was less than 300 nM; in test [9] it was greater than 1000 nM. Further, the inhibition at 1 µM in test [7] was greater than 50%.
With `CCn1cc(COc2ccc(Nc3ccc4ncc(N5CCOCC5)nc4c3C#N)cc2OC)cn1` [Example 116, 6-((3-methoxy-4-((1-ethyl-1H-pyrazol-4-yl)methoxy)phenyl)amino)-3-morpholinoquinoxaline-5-carbonitrile], the concentration for half-maximal inhibition (IC50) was 1000 to 10000 nM in test [1]; greater than 1000 nM in [2] (bound); less than 100 nM in test [3]; 100 to 300 nM in test [4] (class symbol); 300 to 1000 nM in test [5]; greater than 10000 nM in [6]. In addition, the IC50 in test [8] was less than 300 nM; in [9], greater than 1000 nM. Moreover, in test [7], the inhibition at 1 µM was greater than 50%.
